The test system of this series is HeLa cells. Briefly: Aptamer uptake, confocal fluorescence microscopy of live HeLa cells. The class given is cell-based. The conditions noted are these: 200 nM Cy5-labelled aptamer, increasing lengths of time, Lysotracker and early endosome GFP stains. Here is the method: Cells were imaged by confocal microscopy after treatment with 200 nM Cy5-labelled E07 min A-1.0 aptamer (A-1.0) or 200 nM Cy5-labelled constructs (SQ1-1000-001). For aptamer uptake experiments, 1×10^4 cells were plated in each well of a μ-Slide 8 well ibiditreat chamber (IBIDI), in 300 μL DMEM containing 10% v/v FBS. For uptake experiments, 3.4×10^3 cells (HeLa, MDA-MB-231 and A549 cells) or 6.8×10^3 cells (Mcf-7) were plated in each well of a μ-Slide 18 well ibiditreat chamber (IBIDI), in 100 μL DMEM containing 10% v/v FBS. 5 hours after cells had adhered and 48 hours before imaging, media was replaced with 50 particles per cell (PPC) CellLight early endosome-GFP (Thermo Fisher Scientific) for overnight incubation at 37° C. Additionally, 200 μL DMEM aliquots containing 200 nM aptamer were added to cells at corresponding incubation time points. Subsequently, media was removed and replaced with 60 nM LysoTracker Red DND-99 (Thermo Fisher Scientific) in 100-200 μL DMEM for 1 hour at 37° C. Cells were then washed once with Hank's Balanced Salt Solution (HBSS) (Gibco). Finally, 100-200 μL imaging media (HBSS buffered with 20 mM 4-(2-hydroxyethyl)-1-piperazineethanesulfonic acid (HEPES), adjusted to pH 7.4) was added to cells. Confocal images were captured with an EVOS microscope or a Zeiss LSM510 laser scanning microscope using 60× oil objective lens. […]

As for “A-1.0: E07min aptamer, EGFR-targeting, 5′ Cy5, 2′F U, C, SEQ ID 75 (GGACGGAUUUAAUCGCCGUAGAAAAGCAUGUCAAAGCCGGAACCGUCC; 5′ Cy5; 2′F U and C; 2′ fluorine)”, the “intracellular localisation after internalisation” value was “accumulate in lysosomes after internalisation”.
